This is an account of results in paper PMC5522622 (Drug delivery and translational research, 2017).

Series [1] relates to MDCK-MDR cells (P-gp positive). Kind of series: Fluorescence imaging of doxorubicin uptake by MDCK-MDR cells. The format is cell-based, canine.
Series [2] is described as follows: Antioxidant assay kit.
Series [3] has as its system GST-A1. Kind of series: GST-A1 mRNA expression in RL-14 cells by real-time PCR. In kind it is cell-based, human. The conditions noted are these: 10 µM, 24 h. (In general: In qPCR the cycle at which signal appears reflects the starting amount.)
Series [4] can be described thus: In vitro drug release of DoxQ in PBS with 10% FBS at 37 °C, HPLC. The format is in vitro ADME.
The target of series [5] is CYP3A4 (Homo sapiens, UniProt P08684).
Chain of CYP3A4 (P08684 whole entry): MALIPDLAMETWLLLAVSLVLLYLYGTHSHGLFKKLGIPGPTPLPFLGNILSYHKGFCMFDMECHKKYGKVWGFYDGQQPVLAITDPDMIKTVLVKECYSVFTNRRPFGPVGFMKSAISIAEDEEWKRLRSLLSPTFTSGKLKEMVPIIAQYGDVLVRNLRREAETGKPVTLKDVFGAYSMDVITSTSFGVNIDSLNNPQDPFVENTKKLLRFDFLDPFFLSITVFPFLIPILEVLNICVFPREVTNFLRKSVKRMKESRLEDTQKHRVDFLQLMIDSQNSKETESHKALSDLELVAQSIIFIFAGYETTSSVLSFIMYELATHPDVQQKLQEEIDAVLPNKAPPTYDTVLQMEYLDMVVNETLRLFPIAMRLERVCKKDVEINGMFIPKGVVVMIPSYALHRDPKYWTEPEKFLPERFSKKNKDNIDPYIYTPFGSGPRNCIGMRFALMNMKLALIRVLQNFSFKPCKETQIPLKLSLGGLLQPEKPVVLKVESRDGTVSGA
Series [6] concerns triple-negative murine breast cancer cell line. In words: Cytotoxicity by resazurin blue assay. The conditions noted are these: 72 h. In kind it is cell-based.
Series [7] in a line: Water solubility. The format is physicochemical. As to conditions: stated in words, no test described.
Series [8] has as its system adult rat cardiomyocytes. In words: Adult rat cardiomyocyte viability by trypan blue assay. As to conditions: 18 h; for cell death: 10 µM, trypan blue; for cell death, concentration dependence: 1, 5 and 10 µM. In kind it is cell-based.
For series [9], the system named is CYP1B1. As to conditions: MROD and EROD, RL-14 cells.
The test system of series [10] is reactive oxygen species in RL-14 cells. In words: Reactive oxygen species levels by DCF assay in RL-14 cells. The conditions noted are these: 10 µM, 24 h. The format is cell-based, human.
The subject of series [11] is β-MHC. In words: β-MHC mRNA expression in RL-14 cells by real-time PCR. As to conditions: 10 µM, 24 h.
In series [12] the test system is CYP1B1. As to conditions: RL-14 cells.
Series [13] has as its system α-MHC. Kind of series: α-MHC mRNA expression in RL-14 cells by real-time PCR. The conditions noted are these: 10 µM, 24 h.
Series [14] concerns BNP. Kind of series: BNP mRNA expression in RL-14 cells by real-time PCR. The conditions noted are these: 10 µM, 24 h. In kind it is cell-based, human.
Series [15] deals with human cardiomyocytes (RL-14). Kind of series: RL-14 cell viability by MTT assay. The format is cell-based. As to conditions: 10 µM, 24 h, MTT. On the technique in general: Tetrazolium assays rely on reduction of a dye to a coloured formazan, in cell work by metabolically active cells.
Series [16] concerns HO-1. In words: HO-1 mRNA expression in RL-14 cells by real-time PCR. The format is cell-based, human. As to conditions: 10 µM, 24 h.
Series [17] can be described thus: RL-14 cell viability by MTT assay. The format is cell-based, human. As to conditions: human, RL-14 cardiomyocyte cells.

Entries after “also recorded” stand apart in the source; their conditions may differ.

As a reminder, the cell viability is the share of living cells, or the viability signal relative to a control. Low values mean more harm to the cells, high ones less harm to the cells. For `COc1cccc2c1C(=O)c1c(O)c3c(c(O)c1C2=O)CC(O)(C(=O)CO)CC3OC1CC(NC(=O)CNC(=O)Oc2ccc(-c3oc4cc(O)cc(O)c4c(=O)c3O)cc2O)C(O)C(C)O1` (stereo not shown) [DoxQ, quercetin-Gly-Dox], the “fluorescence signal in cells compared to free doxorubicin” value in [1] (50 nM, Fig. 4) is given as “higher”. In addition, the “drug uptake (fluorescence signal, ImageJ) compared to free doxorubicin” value in [1] (after 5-min treatment, Fig. 5a) is recorded as “significantly enhanced”. Moreover, in series [2] (1 and 10 mM), the “antioxidant capacity compared to quercetin alone” value is “significantly higher”. The “antioxidant capacity compared to a mixture of doxorubicin and quercetin” value in series [2] (10 and 50 mM) is listed as “significantly higher”. The “antioxidant effect compared to doxorubicin” value in series [2] (all concentrations studied (1, 10, 50)) is listed as “significantly higher”. Besides, the “lowering of GST-A1 mRNA expression in comparison to doxorubicin” value in [3] stood at 1.5 folds. Moreover, in [4] (Fig. 3), the “duration of in vitro release of doxorubicin from the conjugate” value is recorded as “more than 4 days”. Moreover, in series [4] (aqueous medium, second-order kinetics), the “release t1/2 of quercetin from the conjugate” value is on record as “approximately 100 h”. Moreover, the “CYP3A4 inhibition (percentage relative to ketoconazole), in words” value in [5] (0.01, 0.1, 1, 10, 50 and 100 µM) was “inhibited CYP3A4 at all the concentrations tested”. The “concentration with the highest CYP3A4 inhibition” value in series [5] (range tested 0.01-100 µM) came out at 10 nM. In series [6], the “IC50 relative to doxorubicin alone or a mixture of doxorubicin and quercetin” value is listed as “more than twofold higher”; the “cytotoxicity compared to doxorubicin or mixture” value was “substantially less toxic”. In addition, the IC50 entry in series [6] (given in words) is recorded as “micromolar range”. Besides, the water solubility entry in series [7] is “very poor”. In series [8], the cell death was ~ 17% and the “cell death, concentration dependence” value is given as “dose-response effect”. The “CYP1B1 catalytic activity, in words” value in [9] is given as “significantly inhibited; also recorded: reversed these effects”. For the same compound, the “difference in ROS level versus free doxorubicin” value in [10] was ~ 234%. Moreover, the “inhibition of induction of β-MHC mRNA expression compared to doxorubicin” value in series [11] is 2.5 folds. In [12], the “CYP1B1 mRNA expression, in words” value is recorded as “reversed these effects”. Besides, the “inhibition of CYP1B1 mRNA expression compared to doxorubicin” value in series [12] (Fig. 15a) is “more than 4 folds”. Besides, in series [13], the “inhibition of induction of α-MHC mRNA expression compared to doxorubicin” value is 1.5 folds. In addition, the “inhibition of induction of BNP mRNA expression compared to doxorubicin” value in series [14] worked out at 6 folds. For the same compound, in series [15], the cell viability was 77% and the “prevention of the cytotoxicity mediated by doxorubicin” value is ~ 25%.
As a reminder, the viability is the share of living cells, or the viability signal relative to a control. A lower viability goes with more harm to the cells. As for `COc1cccc2c1C(=O)c1c(O)c3c(c(O)c1C2=O)C[C@@](O)(C(=O)CO)C[C@@H]3O[C@H]1C[C@H](N)[C@H](O)[C@H](C)O1` [doxorubicin, Doxorubicin, reference compound], in [8], the cell death was ~ 22% and the “cell death, concentration dependence” value is “dose-response effect”. In addition, in [9], the “CYP1B1 catalytic activity, in words” value was “induced”. In series [16], the “HO-1 expression lower compared to cells treated with DoxQ” value is 1 fold. Besides, the “β-MHC mRNA expression versus control, in words” value in series [11] is reported as “induced”. Also, the “CYP1B1 mRNA expression, in words” value in series [12] is on record as “induced”. Further, in series [13], the “α-MHC mRNA expression versus control, in words” value was “induced”. Further, in [14], the “BNP mRNA expression versus control, in words” value is “induced”. For the same compound, the viability at 24 h, 10 µM in series [17] is 52%.
